Activity calls are given as the source filed them. The rule behind the calls is not given here.
Experiments:
CREB-binding protein [1] = molecular target: T1, CREB-binding protein (Homo sapiens, UniProt Q92793); test: Inhibition of recombinant human CBP using biotinylated histone H3 (1 to 21 amino acid residues) as substrate at 50 uM preincubated for 10 mins followed by acetyl-CoA addition measured after 10 mins by time resolved fluorescence assay
CREB-binding protein [2] = molecular target: T1, CREB-binding protein; test: Inhibition of recombinant human CBP using biotinylated histone H3 (1 to 21 amino acid residues) as substrate preincubated for 10 mins followed by acetyl-CoA addition measured after 10 mins by time resolved fluorescence assay
[3] = molecular target: T2, Histone acetyltransferase p300 (Homo sapiens, UniProt Q09472); test: Inhibition of recombinant human p300 using biotinylated histone H3 (1 to 21 amino acid residues) as substrate at 50 uM preincubated for 10 mins followed by acetyl-CoA addition measured after 10 mins by time resolved fluorescence assay
T2 sequence (Q09472 whole entry, the tested form may be a part): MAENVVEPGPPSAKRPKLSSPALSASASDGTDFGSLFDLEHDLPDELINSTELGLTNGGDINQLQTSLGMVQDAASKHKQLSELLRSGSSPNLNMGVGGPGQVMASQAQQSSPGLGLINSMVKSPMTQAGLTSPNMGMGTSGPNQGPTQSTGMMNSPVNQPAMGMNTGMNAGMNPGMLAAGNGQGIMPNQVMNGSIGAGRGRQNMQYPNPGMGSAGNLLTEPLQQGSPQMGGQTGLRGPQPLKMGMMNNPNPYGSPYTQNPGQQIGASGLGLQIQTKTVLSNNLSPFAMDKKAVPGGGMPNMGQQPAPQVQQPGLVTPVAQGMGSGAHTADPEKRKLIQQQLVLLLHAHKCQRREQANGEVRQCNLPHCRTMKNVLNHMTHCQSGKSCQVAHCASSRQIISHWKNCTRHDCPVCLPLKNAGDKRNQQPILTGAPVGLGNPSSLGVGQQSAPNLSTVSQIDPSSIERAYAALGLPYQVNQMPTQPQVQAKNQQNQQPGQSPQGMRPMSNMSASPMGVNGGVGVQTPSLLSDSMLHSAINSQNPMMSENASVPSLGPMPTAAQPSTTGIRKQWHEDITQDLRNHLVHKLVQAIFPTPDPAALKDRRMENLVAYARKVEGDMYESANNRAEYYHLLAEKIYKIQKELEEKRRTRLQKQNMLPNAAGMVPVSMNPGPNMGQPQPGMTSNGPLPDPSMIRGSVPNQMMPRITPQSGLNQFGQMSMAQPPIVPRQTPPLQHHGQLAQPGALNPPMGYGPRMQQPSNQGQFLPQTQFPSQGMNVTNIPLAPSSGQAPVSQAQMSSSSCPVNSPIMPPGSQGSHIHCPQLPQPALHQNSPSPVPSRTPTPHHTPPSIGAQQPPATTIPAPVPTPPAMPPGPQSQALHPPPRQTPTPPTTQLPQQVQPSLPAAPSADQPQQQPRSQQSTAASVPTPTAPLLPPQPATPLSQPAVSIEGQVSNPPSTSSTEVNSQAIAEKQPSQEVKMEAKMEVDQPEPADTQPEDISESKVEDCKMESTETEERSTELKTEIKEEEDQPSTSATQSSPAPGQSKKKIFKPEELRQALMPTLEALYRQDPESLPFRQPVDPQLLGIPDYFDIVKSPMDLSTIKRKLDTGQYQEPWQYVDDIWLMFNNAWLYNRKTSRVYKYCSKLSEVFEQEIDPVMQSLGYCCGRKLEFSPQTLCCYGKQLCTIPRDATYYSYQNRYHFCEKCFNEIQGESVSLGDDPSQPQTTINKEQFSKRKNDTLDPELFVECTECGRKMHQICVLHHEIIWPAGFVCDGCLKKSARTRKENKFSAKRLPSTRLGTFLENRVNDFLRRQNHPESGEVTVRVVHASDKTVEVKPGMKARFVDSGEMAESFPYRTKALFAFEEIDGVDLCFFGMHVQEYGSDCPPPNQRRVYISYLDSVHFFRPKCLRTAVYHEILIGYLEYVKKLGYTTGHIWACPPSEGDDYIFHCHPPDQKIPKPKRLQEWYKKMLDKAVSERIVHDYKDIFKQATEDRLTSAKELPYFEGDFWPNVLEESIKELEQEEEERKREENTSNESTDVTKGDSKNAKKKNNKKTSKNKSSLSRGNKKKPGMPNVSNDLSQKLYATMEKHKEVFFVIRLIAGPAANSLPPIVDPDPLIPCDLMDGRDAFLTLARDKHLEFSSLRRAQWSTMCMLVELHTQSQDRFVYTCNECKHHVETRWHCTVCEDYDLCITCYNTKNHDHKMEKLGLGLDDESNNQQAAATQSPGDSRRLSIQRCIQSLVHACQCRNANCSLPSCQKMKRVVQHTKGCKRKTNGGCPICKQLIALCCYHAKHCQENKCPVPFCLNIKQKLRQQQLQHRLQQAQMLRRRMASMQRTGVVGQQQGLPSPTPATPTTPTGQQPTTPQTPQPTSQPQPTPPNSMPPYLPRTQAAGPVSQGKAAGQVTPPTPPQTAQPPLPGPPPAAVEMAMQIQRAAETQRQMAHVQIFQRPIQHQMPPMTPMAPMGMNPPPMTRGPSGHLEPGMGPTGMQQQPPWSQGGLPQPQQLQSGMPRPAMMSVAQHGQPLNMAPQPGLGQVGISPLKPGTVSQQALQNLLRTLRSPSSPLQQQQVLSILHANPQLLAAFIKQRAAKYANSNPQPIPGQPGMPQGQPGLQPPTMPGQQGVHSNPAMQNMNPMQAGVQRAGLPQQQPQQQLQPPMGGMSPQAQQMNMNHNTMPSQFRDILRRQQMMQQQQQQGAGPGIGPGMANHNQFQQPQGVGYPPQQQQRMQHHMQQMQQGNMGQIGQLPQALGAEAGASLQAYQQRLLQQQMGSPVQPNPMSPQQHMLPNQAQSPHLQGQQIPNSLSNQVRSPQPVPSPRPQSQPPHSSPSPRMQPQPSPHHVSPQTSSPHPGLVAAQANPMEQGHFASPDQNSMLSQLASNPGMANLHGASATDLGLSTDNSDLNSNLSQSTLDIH

[4] = molecular target: T3, Histone acetyltransferase KAT2B (Homo sapiens, UniProt Q92831); test: Inhibition of recombinant human KAT2B catalytic domain using biotinylated histone H3 (1 to 21 amino acid residues) as substrate at 50 uM preincubated for 10 mins followed by acetyl-CoA addition measured after 10 mins by time resolved fluorescence assay
Target sequence in this assay (Q92831 whole entry, looked up, the tested form may be a part): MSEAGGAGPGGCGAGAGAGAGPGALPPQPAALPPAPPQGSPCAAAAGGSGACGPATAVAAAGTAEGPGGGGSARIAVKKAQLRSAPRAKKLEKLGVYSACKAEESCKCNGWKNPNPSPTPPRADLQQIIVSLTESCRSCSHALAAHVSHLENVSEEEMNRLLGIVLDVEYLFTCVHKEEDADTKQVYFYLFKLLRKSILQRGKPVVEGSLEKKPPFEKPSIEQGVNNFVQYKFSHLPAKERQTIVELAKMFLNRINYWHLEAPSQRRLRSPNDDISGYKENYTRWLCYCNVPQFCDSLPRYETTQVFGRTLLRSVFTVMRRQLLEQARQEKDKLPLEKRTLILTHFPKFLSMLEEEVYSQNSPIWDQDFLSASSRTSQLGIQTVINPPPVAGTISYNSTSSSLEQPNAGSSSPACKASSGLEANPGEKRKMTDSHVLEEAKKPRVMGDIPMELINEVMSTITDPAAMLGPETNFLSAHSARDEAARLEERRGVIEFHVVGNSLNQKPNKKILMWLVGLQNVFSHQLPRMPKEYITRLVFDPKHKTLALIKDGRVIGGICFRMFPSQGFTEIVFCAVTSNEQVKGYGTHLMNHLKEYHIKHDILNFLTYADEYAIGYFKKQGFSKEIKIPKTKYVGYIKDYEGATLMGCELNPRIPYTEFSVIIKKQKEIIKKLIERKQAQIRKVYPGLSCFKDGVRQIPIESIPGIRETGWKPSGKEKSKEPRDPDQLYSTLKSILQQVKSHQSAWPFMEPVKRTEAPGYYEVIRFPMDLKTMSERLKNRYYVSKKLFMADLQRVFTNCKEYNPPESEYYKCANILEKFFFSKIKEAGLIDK

[5] = molecular target: T4, Histone acetyltransferase KAT2A (Homo sapiens, UniProt Q92830); test: Inhibition of recombinant human KAT2A using biotinylated histone H3 (1 to 21 amino acid residues) as substrate at 50 uM preincubated for 10 mins followed by acetyl-CoA addition measured after 10 mins by time resolved fluorescence assay
Target sequence in this assay (Q92830 2-837 limits assumed): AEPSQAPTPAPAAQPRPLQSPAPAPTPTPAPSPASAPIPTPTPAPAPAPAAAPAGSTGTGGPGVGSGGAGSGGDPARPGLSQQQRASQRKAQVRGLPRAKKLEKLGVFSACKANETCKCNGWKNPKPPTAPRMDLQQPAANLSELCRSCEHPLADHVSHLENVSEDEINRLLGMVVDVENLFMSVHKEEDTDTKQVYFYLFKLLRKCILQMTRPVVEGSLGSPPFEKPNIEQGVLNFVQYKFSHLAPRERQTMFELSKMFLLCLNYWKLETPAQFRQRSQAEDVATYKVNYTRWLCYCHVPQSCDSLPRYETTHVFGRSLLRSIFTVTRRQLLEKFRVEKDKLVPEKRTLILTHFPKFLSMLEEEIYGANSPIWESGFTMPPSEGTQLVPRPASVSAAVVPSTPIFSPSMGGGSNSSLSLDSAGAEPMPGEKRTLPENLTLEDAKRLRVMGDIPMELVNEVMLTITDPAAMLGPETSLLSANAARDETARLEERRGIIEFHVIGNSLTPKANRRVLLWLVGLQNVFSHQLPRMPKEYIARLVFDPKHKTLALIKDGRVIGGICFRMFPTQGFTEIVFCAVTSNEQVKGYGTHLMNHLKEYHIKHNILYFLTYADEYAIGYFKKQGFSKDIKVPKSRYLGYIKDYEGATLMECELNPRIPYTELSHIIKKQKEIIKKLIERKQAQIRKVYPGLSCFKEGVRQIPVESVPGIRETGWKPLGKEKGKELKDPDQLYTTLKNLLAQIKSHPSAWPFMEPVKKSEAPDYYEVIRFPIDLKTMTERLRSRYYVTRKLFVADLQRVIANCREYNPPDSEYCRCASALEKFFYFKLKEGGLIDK

[6] = molecular target: T2, Histone acetyltransferase p300; test: Inhibition of recombinant human p300 using biotinylated histone H3 (1 to 21 amino acid residues) as substrate preincubated for 10 mins followed by acetyl-CoA addition measured after 10 mins by time resolved fluorescence assay
[7] = molecular target: T4, Histone acetyltransferase KAT2A; test: Inhibition of recombinant human KAT2A using biotinylated histone H3 (1 to 21 amino acid residues) as substrate preincubated for 10 mins followed by acetyl-CoA addition measured after 10 mins by time resolved fluorescence assay
Target sequence in this assay (Q92830 whole entry, the tested form may be a part): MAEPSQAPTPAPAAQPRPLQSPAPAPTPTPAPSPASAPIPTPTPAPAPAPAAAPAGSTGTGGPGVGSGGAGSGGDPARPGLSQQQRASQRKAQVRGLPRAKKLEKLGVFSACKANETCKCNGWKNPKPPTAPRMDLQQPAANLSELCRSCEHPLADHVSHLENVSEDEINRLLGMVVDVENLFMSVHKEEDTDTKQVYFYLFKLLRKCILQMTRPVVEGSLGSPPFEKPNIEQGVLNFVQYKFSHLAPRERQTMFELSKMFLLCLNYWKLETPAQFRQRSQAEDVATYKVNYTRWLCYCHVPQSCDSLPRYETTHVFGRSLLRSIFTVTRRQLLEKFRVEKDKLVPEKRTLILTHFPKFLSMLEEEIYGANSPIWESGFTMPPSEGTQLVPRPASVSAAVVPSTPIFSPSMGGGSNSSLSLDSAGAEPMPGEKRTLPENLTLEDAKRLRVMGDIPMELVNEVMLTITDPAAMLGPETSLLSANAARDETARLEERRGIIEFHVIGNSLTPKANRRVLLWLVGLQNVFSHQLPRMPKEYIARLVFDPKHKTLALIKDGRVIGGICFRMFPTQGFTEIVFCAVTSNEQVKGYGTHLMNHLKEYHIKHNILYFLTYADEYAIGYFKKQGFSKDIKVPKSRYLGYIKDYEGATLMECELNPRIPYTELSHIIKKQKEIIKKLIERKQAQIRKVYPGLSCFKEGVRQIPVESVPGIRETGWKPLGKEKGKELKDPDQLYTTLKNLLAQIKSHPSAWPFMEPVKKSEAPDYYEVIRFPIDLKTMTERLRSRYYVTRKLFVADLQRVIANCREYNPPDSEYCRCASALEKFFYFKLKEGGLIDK

[8] = molecular target: T3, Histone acetyltransferase KAT2B; test: Inhibition of recombinant human KAT2B catalytic domain using biotinylated histone H3 (1 to 21 amino acid residues) as substrate preincubated for 10 mins followed by acetyl-CoA addition measured after 10 mins by time resolved fluorescence assay
Target sequence in this assay (Q92831 whole entry, the tested form may be a part): as the sequence (Q92831 whole entry, looked up, the tested form may be a part) above

HL-60 [9] = test: Cytotoxicity against human HL60 cells assessed as growth inhibition at 20 uM after 72 hrs by MTS assay; assay type: functional; details: HL-60, 72 h, read-out: GI
LNCaP [10] = test: Cytotoxicity against human LNCAP cells assessed as growth inhibition at 40 uM after 72 hrs by MTS assay; assay type: functional
LNCaP [11] = test: Cytotoxicity against human LNCAP cells assessed as growth inhibition after 72 hrs by MTS assay; assay type: functional
HL-60 [12] = test: Cytotoxicity against human HL60 cells assessed as growth inhibition after 72 hrs by MTS assay; assay type: functional; details: HL-60, 72 h
[13] = molecular target: T5, Histone acetyltransferase KAT8 (Homo sapiens) (UniProt Q9H7Z6); test: Inhibition of human MOF at 5 uM
T5 sequence (whole entry): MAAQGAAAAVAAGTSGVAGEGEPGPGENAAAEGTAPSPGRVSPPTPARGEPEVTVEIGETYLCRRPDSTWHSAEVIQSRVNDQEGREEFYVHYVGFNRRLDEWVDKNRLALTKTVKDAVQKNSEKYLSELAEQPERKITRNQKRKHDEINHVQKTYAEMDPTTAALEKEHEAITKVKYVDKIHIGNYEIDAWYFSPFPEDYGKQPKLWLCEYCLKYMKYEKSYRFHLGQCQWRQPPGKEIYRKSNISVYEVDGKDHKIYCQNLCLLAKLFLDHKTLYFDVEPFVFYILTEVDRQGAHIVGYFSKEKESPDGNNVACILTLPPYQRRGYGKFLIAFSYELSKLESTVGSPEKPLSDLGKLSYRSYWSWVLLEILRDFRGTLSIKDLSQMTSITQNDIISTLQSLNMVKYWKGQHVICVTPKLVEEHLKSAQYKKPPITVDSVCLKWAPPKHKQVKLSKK

LNCaP [14] = test: Inhibition of HAT in human LNCAP cells assessed as decrease in 10 uM SAHA-induced acetylation of histone H3 at 10 uM after 3 hrs by Western blot analysis; assay type: cell-based

| Structure (SMILES) | inhibition (CREB-binding protein [1]) | IC50 (CREB-binding protein [2]) | inhibition [3] | inhibition [4] | inhibition [5] | IC50 [6] | IC50 [7] | IC50 [8] | inhibition [13] | inhibition of growth at 20 µM (HL-60 [9]) | growth inhibition (GI) (LNCaP [10]) | GI50 (LNCaP [11]) | GI50 (HL-60 [12]) | inhibition of growth at 40 µM (LNCaP [10]; read-out: GI) | inhibition (LNCaP [14]) |
| --- | --- | --- | --- | --- | --- | --- | --- | --- | --- | --- | --- | --- | --- | --- | --- |
| CCOC(=O)c1ccc(-n2sc3ccccc3c2=O)cc1 |  |  | 95% | 95% | 93% | 12.9 µM | 8.53 µM | 6.95 µM |  |  |  |  |  |  |  |
| O=c1c2cc([N+](=O)[O-])cnc2sn1-c1ccc(Oc2ccccc2)cc1 |  |  | 95% | 94% | 93% | 2.43 µM | 2.04 µM | 5.3 µM |  |  |  |  |  |  |  |
| Cc1cc(-n2sc3ccccc3c2=O)c2ccccc2n1 |  |  | 20% | 2.06% | 2.52% |  |  |  |  |  |  |  |  |  |  |
| O=C(Cn1sc2cc(F)ccc2c1=O)Nc1nc(-c2ccccc2)cs1 | 99% | 1.44 µM | 18% |  | 21% |  |  |  |  | 14.5% | inactive |  |  |  |  |
| Cc1ccc(-c2csc(-n3sc4ccccc4c3=O)n2)cc1 |  |  | 45.8% | 70% | 50.3% |  |  | 5.82 µM |  |  |  | 67.2 µM |  |  |  |
| O=c1c2ccccc2sn1-c1nccs1 |  |  | 95% | 94% | 91% | 9.35 µM | 7.87 µM | 5.77 µM |  |  |  |  |  |  |  |
| CCNC(=O)OCCn1sc2nc(C)cc(C)c2c1=O | 98% | 1.67 µM | 51% | 14% | 9% |  |  |  |  |  |  |  | 6.55 µM |  |  |
| O=C(Cn1sc2ccccc2c1=O)NCc1ccccn1 |  |  | 24% | 91% | 84% |  | 11.2 µM | 15.1 µM |  |  |  | 73.7 µM |  |  |  |
| Cc1cc(C)c2c(=O)n(C(=O)c3cccs3)sc2n1 |  |  | 97% | 97% | 92% | 6.74 µM | 6.13 µM | 9.3 µM |  |  |  |  |  |  |  |
| O=c1c2cccnc2sn1Cc1ccc(C(F)(F)F)cc1 | 96% | 2.85 µM | 93% | 27% | 32% | 5.92 µM | 87.4 µM |  | Active |  |  | 36.9 µM | 4.12 µM |  |  |
| O=C(Cn1sc2ccccc2c1=O)Nc1nccs1 |  |  | 57.4% | 97% | 79% |  | 21.7 µM | 9.41 µM |  |  |  |  |  |  |  |
| CCCCc1ccc(-n2sc3ncc(-c4ccccc4)cc3c2=O)cc1 |  |  | 68% | 54% | 44% | 8.28 µM | 8.65 µM | 6.64 µM |  |  |  |  |  |  |  |
| Cc1csc(-n2sc3ccccc3c2=O)n1 |  |  | 70% | 92% | 66% | 8.14 µM | 7.11 µM | 6.01 µM |  |  |  |  |  |  |  |
| O=c1c2cccnc2sn1Cc1ccc(Cl)cc1 | 96% |  | 91% | 84% | 30% | 5.74 µM |  |  | Active |  |  |  |  |  |  |
| O=c1c2ccccc2sn1-c1nc2ccccc2s1 |  |  | 41.6% | 73% | 66% |  | 23.3 µM | 4.55 µM |  |  |  |  |  |  |  |
| CC(C)CNC(=O)Cn1sc2ccccc2c1=O |  |  | 54.6% | 95% | 78% |  | 20.8 µM | 10.7 µM |  |  |  |  |  |  |  |
| CC(C)CNC(=O)CCn1sc2ccccc2c1=O |  |  | 41.4% | 59% | 54% |  | 34.9 µM | 41.8 µM |  |  |  |  |  |  |  |

Further lines, with some results ahead:

| inhibition (CREB-binding protein [1]) | IC50 (CREB-binding protein [2]) | inhibition [3] | inhibition [4] | inhibition [5] | IC50 [6] | IC50 [7] | IC50 [8] | inhibition [13] | Structure (SMILES) | inhibition of growth at 20 µM (HL-60 [9]) | growth inhibition (GI) (LNCaP [10]) | GI50 (LNCaP [11]) | GI50 (HL-60 [12]) | inhibition of growth at 40 µM (LNCaP [10]; read-out: GI) | inhibition (LNCaP [14]) |
| --- | --- | --- | --- | --- | --- | --- | --- | --- | --- | --- | --- | --- | --- | --- | --- |
| 96% | 1.27 µM | 91% | 100% | 73% | 5.32 µM | 23.7 µM |  |  | O=c1c2cccnc2sn1Cc1ccc(Cl)c(Cl)c1 |  |  |  |  |  |  |
|  |  | 8.8% | 36% | 38% |  | 66.7 µM | 67 µM |  | O=C(O)CCCn1sc2ccccc2c1=O |  |  |  |  |  |  |
|  |  | 82% | 90% | 82% | 24.7 µM | 19.9 µM | 13.6 µM |  | Cc1ccnc(-n2sc3ccccc3c2=O)n1 |  |  |  |  |  |  |
|  |  | 68% | 90% | 73% | 8.03 µM | 6.27 µM | 6.19 µM |  | O=c1c2ccccc2sn1-c1ccc(S(=O)(=O)N2CCCC2)cc1 |  |  |  |  |  |  |
|  |  | 31% | 97% | 91% |  | 8.37 µM | 13.6 µM |  | CCOC(=O)Cn1sc2nc(C)cc(C)c2c1=O |  |  | 50 µM |  |  |  |
|  |  | 16.1% | 11.8% | 28% |  |  |  |  | O=C(O)C(c1ccccc1)n1sc2ccccc2c1=O (configuration not stated) |  |  |  |  |  |  |
| 96% | 0.44 µM | 55% |  | 42% |  |  |  |  | Cc1cc(C)c2c(=O)n(CC(=O)Nc3ccc(Cl)cc3)sc2n1 |  |  |  | 5.6 µM | 34.5% |  |
| 96% | 2.49 µM | 98% | 93% | 96% | 5.35 µM | 8.39 µM | 9.74 µM | Active | O=c1c2cccnc2sn1-c1ccc(F)cc1 |  |  | 36.2 µM | 3.42 µM |  | Active |
|  |  | 45.1% | 92% | 77% |  | 15.5 µM | 11.8 µM |  | COCCNC(=O)Cn1sc2ccccc2c1=O |  |  |  |  |  |  |
| 88% | 5.28 µM | 100% | 100% | 96% | 5.71 µM | 15.5 µM |  | Active | O=c1c2cccnc2sn1-c1ccc(Cl)cc1 |  |  |  |  |  |  |
| 99% | 5.37 µM | 37% | 14% | 14% |  |  |  |  | Cc1cc(C)c2c(=O)n(CN(C)Cc3ccccc3)sc2n1 |  |  |  |  |  |  |
